Experimental data from patent publication US11066412B2, “Substituted pyrrolo[2,1-a]phthalazines and benzo[g]pyrrolo[2,1-a]phthalazines for the treatment of cancer” (Academia Sinica, priority 2017, dated 2021).

Tests used:
H460 cell lines = assay: Annexin V staining assay; assay type: cell-based, human; conditions: 0.5, 1 and 2 μM, 48 hr; FIG. 7
Experimental: In this example, Annexin V staining assay was used to assess BO-2590 induced apoptotic cell death in H460 cell lines. Briefly, H460 cells were treated with BO-2590 at the concentrations of 0.5, 1 and 2 μM for 48 hr and then stained with Annexin V-FITC and propidium iodide. The stained cells were analyzed by flow cytometry.

endothelial cells = assay: transwell migration assay; assay type: cell-based; conditions: 8 hours; FIG. 4, panel A
Experimental: In the present example, we explored whether compound BO-2590 was able to suppress the cell migration using transwell migration assay.
Briefly, the endothelial cells were placed on the upper layer of a cell permeable membrane and a solution containing BO-2590 was placed below the cell permeable membrane. Following an incubation period (8 hours), the cells that had migrated through the membrane were stained and counted under a fluorescence microscopy.

[1] = solubility / hydrophobicity (statement); assay type: physicochemical
γ-H2AX = assay: immunohistochemical staining of tumor xenograft sections, DNA damage marker; assay type: in vivo, nude mice; conditions: FIG. 16, panel B
Experimental: Tumor xenograft tissue sections on the slides were deparaffinized in xylene twice for 7 min each time. The slides were then rehydrated in graded ethanol, serially from 100% to 70%, followed by rinsing in dH2O. Antigen retrieval was performed using citrate buffer (0.01M, pH 6.0) with incubation in a cooker for 50 mins followed by ambient temperature cooling for 30 min. and then dH2O rinsing. Later slides were subjected to immunohistochemical (IHC) staining with primary antibodies (anti-rabbit CD31 antibody and anti-mouse γ-H2AX antibody) obtained from Abeam® following the manufacturer's instructions (Novolink Polymer Detection system, Leica Biosystems, Wetzlar, Germany).^11 After IHC processing, the slides were scanned digitally using the Panoramic 250 Flash II whole slide scanner and analyzed by 3[…] Panoramic viewer software (3[…] Ltd., Budapest, Hungary).
As BO-2590L is a DNA damaging agent, we thus investigated the effect of BO-2590L on the level of a DNA damage marker, γ-H2AX, via the use of immunohistochemical staining.

EA.hy926 cells = assay: Tube-Formation Assay; assay type: cell-based; conditions: 24 hr pre-treatment, 48-hr incubation on matrigel; FIG. 4
Experimental: Angiogenesis is the process of generating new blood vessels derived as extensions from the existing vasculature. Performance of vascular behavior or monitoring tube formation can determine whether the compound is capable of interrupting angiogenesis. In this example, whether the compound of formula (I) interrupted angiogenesis was investigated using Tube-Formation Assay.
Briefly, EA.hy926 cells were treated with various concentrations of BO-2590 for 24 hr. After that, cells (5×10^5 cells/well) were suspended in 100 μl medium containing 1% FCS and subsequently seeded onto 96-well plate pre-coated with matrigel 1 h at 37° C. After a 48-hr incubation, tube-formation ability was examined under a phase microscope.

SCLC H211 xenografts = assay: tumor growth in xenograft-bearing nude mice, combination with cisplatin; assay type: in vivo; conditions: co-administration of BO-2768 (20 mg/kg, 5 days + 1 day rest, two cycles) and cisplatin (2 or 4 mg/kg every 4 days ×3); FIG. 14, panel A
Experimental: Athymic nude mice bearing the nu/nu gene were obtained from the National Laboratory Animal Center (Taipei, Taiwan). Male nude mice (6 weeks or older weighing 20-24 g or more) were used for all human tumor xenografts. The tested compounds were intravenously administered through tail vein. Tumor volume was determined by measuring the length x width x height (or width) with calipers. The vehicle used for the tested compounds was normal saline (0.9% NaCl isotonic solution). For tumor-bearing nude mice during the course of the experiment, the % body weight changes refer to: (the total weight on reading day/the total weight on day treatment started)×100.
In this example, the synergistic effect of BO-2768 and cisplatin on the suppression of tumor size and the body weight changes of the test subjects were investigated. To this purpose, an aliquot of H211 cells (5×10^6, 50 μl ) were implanted into nude mice subcutaneously. Then, the test animals were treated with BO-2768 or cisplatin, alone or in combination. BI-2768 (dissolved in 20% Kolliphor® HS 15, 10% Tween 80, 10% PEG400, […], and 40% distilled water) was administered at the dose of 20 mg/kg in […] for 5 consecutive days, then rest for one day; and the cycle was repeated once (i.e., a total of two cycles). Cisplatin was given at the dose of 2 or 4 mg/kg once every 4 days, for 3 times. Results are depicted in FIG. 14.

H211 cells = assay: combination with cisplatin, proliferation by PrestoBlue assay; assay type: cell-based; conditions: co-administration of BO-2768 and cisplatin, ratio 1:2, 1:4 and 1:8; FIG. 9
Experimental: In this example, whether synergistic effect on the suppression of cell proliferation exists between BO-2768 and cisplatin was investigated. To this purpose, H211 cells were treated with BO-2768 or cisplatin, alone or in combination, and proliferation rate of H211 cells was analyzed by PrestoBlue assay. Results are depicted in FIG. 9.

H82 = assay: in vitro cytotoxicity to SCLC cells; assay type: cell-based, human; conditions: Table 3
How it was run: (§1)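 SCLC lines exposed to compounds for 72 h, then viability measured by PrestoBlue (1–2 h at 37° C, absorbance 570/600 nm).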

H146 = assay: in vitro cytotoxicity to SCLC cells; assay type: cell-based, human; conditions: Table 3
How it was run: as §1

H211 = assay: in vitro cytotoxicity to SCLC cells; assay type: cell-based, human; conditions: Table 3
How it was run: as §1

H1417 = assay: in vitro cytotoxicity to SCLC cells; assay type: cell-based, human; conditions: Table 3
How it was run: as §1

H526 cell lines = assay: Annexin V staining assay; assay type: cell-based; conditions: 0.01-0.08 μM, 72-h treatment; FIG. 8
Experimental: In this example, the effect of BO-2768 was assessed in accordance with procedures of Example 4.7 except apoptotic cell death was determined in H526 cell lines. Briefly, H526 cells were treated with BO-2768 at the concentrations of 0.01, 0.02, 0.04 and 0.08 μM or with cisplatin at the concentrations of 2, 4, 8 and 16 μM for 24, 48 or 72 hrs and then stained with Annexin V-FITC and propidium iodide. The stained cells were analyzed by flow cytometry.

With Cc1c(CO)c(CO)c2c3ccccc3c(N3CCC(N4CCCCC4)CC3)nn12 [BO-2590, (6-([1,4′-Bipiperidin]-1′-yl)-3-methylpyrrolo[2,1-α]phthalazine-1,2-diyl)dimethanol] the “proportion of Annexin V+ cells” value (H460 cell lines) was “significantly increased the proportion of Annexin V^+ cells in a dose-dependent manner”, the cell migration (endothelial cells) was “impairment in cell migration” and the solubility [1] was “poor”. The “γ-H2AX signals, quantitative analysis” value (γ-H2AX) was “time-dependently increased in γ-H2AX signals” and the tube formation (EA.hy926 cells) was “markedly and dose-dependently abolished tube formation”.

In the case of Cc1c(CO)c(CO)c2c3cc4ccccc4cc3c(N(C)C)nn12 [BO-2768, (6-(Dimethylamino)-3-methylbenzo[g]pyrrolo[2,1-α]phthalazine-1,2-diyl)dimethanol], the “tumor size, combination effect” value (SCLC H211 xenografts) is reported as “synergistic reduction in the tumor size”, the “numbers of proliferated H211 cells, combination effect” value (H211 cells) is reported as “synergistic reduction in the numbers of proliferated H211 cells” and the IC50 (H82) is reported as 310 ± 140 nM. It also gave an IC50 (H146) of 1170 ± 290 nM, an IC50 (H211) of 170 ± 70 nM and an IC50 (H1417) of 420 ± 190 nM. For the same compound, the “proportion of Annexin V+ cells” value (H526 cell lines) was “significantly increased the proportion of Annexin V^+ cells in a dose-dependent manner”.
